From patent US8034606B2, “Acid tolerant Lactobacillus sakei probio-65 with the ability of growth suppression of pathogenic microorganisms and the anti-allergic effect” (priority 2005, dated 2011)

tested on: Lactobacillus sakei Probio-65; assay: Antibiotic sensitivity test of the strain against fourteen antibiotics; assay type: cell-based; conditions: antibiotic amount 2 to 250 μg depending on antibiotic; compared with Resistance (mm)

Compound | Diameter [mm]
CN(C)c1ccc(O)c2c1C[C@H]1C[C@H]3[C@H](N(C)C)C(O)=C(C(N)=O)C(=O)[C@@]3(O)C(O)=C1C2=O [Minocyclin] | 26
CC1(C)S[C@@H]2[C@H](NC(=O)Cc3ccccc3)C(=O)N2[C@H]1C(=O)O [Penicillin G] | 20
Cc1noc(NS(=O)(=O)c2ccc(N)cc2)c1C [Sulfisoxzazole] | 0
Gentamicin | 9
Neomycin | 9

same assay, conditions: antibiotic amount (μg); resistant or susceptible by diameter (mm)

Compound | Results
CN(C)c1ccc(O)c2c1C[C@H]1C[C@H]3[C@H](N(C)C)C(O)=C(C(N)=O)C(=O)[C@@]3(O)C(O)=C1C2=O [Minocyclin] | S
Cc1noc(NS(=O)(=O)c2ccc(N)cc2)c1C [Sulfisoxzazole] | R
Gentamicin | R
Neomycin | R
